Measurements: patent publication US12091402B2 (Avilar Therapeutics, Inc., priority 2021, dated 2024)
Like-named read-outs stand apart in the source and are kept apart here.

Legend:
[1] = molecular target: T1, ASGPR receptor on the cell surface (HepG2 cells) (Homo sapiens, UniProt P07306); test: Ternary complex formation assay (flow cytometry, HepG2); type: cell-based
T1 construct: host or cells: HepG2
T1 sequence (P07306 1-291): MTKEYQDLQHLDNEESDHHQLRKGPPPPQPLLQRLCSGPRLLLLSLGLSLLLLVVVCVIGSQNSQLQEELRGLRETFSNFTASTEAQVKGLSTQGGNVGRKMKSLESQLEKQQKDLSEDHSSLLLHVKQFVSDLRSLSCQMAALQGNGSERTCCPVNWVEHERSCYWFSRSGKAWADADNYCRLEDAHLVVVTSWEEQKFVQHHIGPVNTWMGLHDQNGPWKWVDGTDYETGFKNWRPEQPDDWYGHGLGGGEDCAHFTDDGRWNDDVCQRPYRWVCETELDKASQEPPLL
T1 sequence (P07307 1-311 partner): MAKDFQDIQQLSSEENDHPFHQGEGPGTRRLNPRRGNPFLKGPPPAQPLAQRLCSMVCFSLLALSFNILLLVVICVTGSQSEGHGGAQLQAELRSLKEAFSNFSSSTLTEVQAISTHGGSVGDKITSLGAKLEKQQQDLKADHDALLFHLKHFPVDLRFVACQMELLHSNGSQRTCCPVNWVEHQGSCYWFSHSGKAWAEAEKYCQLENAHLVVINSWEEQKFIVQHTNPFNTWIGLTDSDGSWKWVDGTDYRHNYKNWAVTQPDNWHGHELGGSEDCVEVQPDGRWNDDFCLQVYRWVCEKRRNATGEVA
From the text: The ternary complex formation assay is designed to identify the concentration of Degrader required to form a complex between the degrader, a constant concentration of fluorescently-labeled antibody and the ASGPR receptor on the cell surface. The peak mean fluorescence intensity (MFI) occurs at the optimal degrader concentration for ternary complex formation. Sub-optimal concentrations of degrader (too much or too little) results in fewer complexes formed and a reduced […].
Human IgG (Sigma-Aldrich, 14506) was covalently labeled with Alexa Fluor 488 using the Alexa Fluor™ 488 Protein Labeling Kit (Thermo Fisher, A10235) following the manufacturer's instructions. HepG2 cells (ATCC, HIB-8065) were cultured to about 70% confluence and harvested by trypsinization. Single cell suspensions of HepG2 cells were plated in 96 well plates at 1×10^5 cells/well in cell culture media (DMEM supplemented with […]) and placed at 4° C. For studies using human IgG, cells were incubated with 100 nM AF488-labeled anti-human IgG and serial dilutions of IgG-based degrader for 1 hour at 4° C. For studies using DNP, cells were incubated with 100 nM AF488-labeled polyclonal rabbit anti-dinitrophenyl (DNP) antibodies (ThermoFisher) and serial dilutions of DNP-based degrader for 1 hour at 4° C. After washing once with ice-cold PBS containing 0.1% BSA and 0.1% sodium azide, cells were resuspended in 150 uL PBS+0.1% BSA and cell-associated AF488 fluorescence was measured by flow cytometry using the iQue® Screener PLUS Flow Cytometer (IntelliCyt).

[2] = system: HepG2 cells; test: Cellular uptake assay of AF488-labeled antibody (HepG2); type: cell-based
Procedure: The cellular uptake assay is designed to measure compound-mediated cellular uptake of fluorescently labeled antibody following ternary complex formation with the ASGPR receptor and endocytosis of the entire complex into cells.
Human IgG (Sigma-Aldrich, 14506) was covalently labeled with Alexa Fluor 488 using the Alexa Fluor™ 488 Protein Labeling Kit (Thermo Fisher, A10235) following the manufacturer's instructions. HepG2 cells were plated in DMEM supplemented with 10% FBS at 5,000 cells per well in a 96-well microtiter plate and incubated for approximately 18 hours at 37° C./5% CO2. For studies using human IgG, 100 nM AF488-labeled human IgG antibodies and serial dilutions of IgG-based degrader (0.1% DMSO final concentration) were added to the cells and the mixture was incubated at 37° C. for 6 hours. For studies using DNP, 100 nM AF488-labeled DNP antibodies and serial dilutions of DNP-based degrader (0.1% DMSO final concentration) were added to the cells and the mixture was incubated at 37° C. for 6 hours. HepG2 cells were fixed in 100% methanol at −20° C. for 20 min, washed 3× with PBS, then stained with DAPI (Thermo, Cat #H3570). HepG2 cells were imaged for DAPI and Alexa Fluor 488 using the Operetta CLS, high-content analysis system (PerkinElmer). Data is presented as the ratio of the number of cells positive for hIgG or DNP (AF-488 fluorescence) over the total cell number (measured by DAPI).

[3] = HepG2 cells, 100 nM AF488-labeled antibody, 37° C. for 6 hours, class symbols, read-out: Uptake Assay EC50

Compound | EC50 [1] [nM] | EC50 [2, 3] [nM] | EC50 ([1]; Ternary Complex EC50 (nM), HepG2 cells, 100 nM AF488-labeled antibody, 1 hour at 4° C., class symbols) [nM] | EC50 ([2]; Homo sapiens, HepG2, 6 h, read-out: Uptake Assay EC50 (nM)) [nM] | EC50 ([2]; HepG2 cells, read-out: Uptake EC50) [nM]
CC(C)C[C@@H]1NC(=O)[C@H](Cc2c[nH]cn2)NC(=O)[C@H](Cc2c[nH]c3ccccc23)NC(=O)[C@H](C)NC(=O)[C@@H]2CSSC[C@H](NC(=O)[C@H](Cc3c[nH]c4ccccc34)NC(=O)[C@H](C(C)C)NC(=O)[C@H](CC(C)C)NC(=O)[C@H](CCC(=O)O)NC(=O)CNC1=O)C(=O)N[C@@H]([C@@H](C)O)C(=O)N1CCC[C@@H]1C(=O)N1C[C@@H](NC(=O)COCC(=O)NC(COCCC(=O)NCCOCCOCCOCCOC[C@H]3OC[C@H](Nc4nccc(C(F)(F)F)n4)[C@@H](O)[C@H]3O)COCCC(=O)NCCOCCOCCOCCOC[C@H]3OC[C@H](Nc4nccc(C(F)(F)F)n4)[C@@H](O)[C@H]3O)C[C@H]1C(=O)N[C@@H](CC(=O)O)C(=O)N2 [Compound 46] | < 100 | < 100 | – | – | –
CC(C)C[C@@H]1NC(=O)[C@H](Cc2c[nH]cn2)NC(=O)[C@H](Cc2c[nH]c3ccccc23)NC(=O)[C@H](C)NC(=O)[C@@H]2CSSC[C@H](NC(=O)[C@H](Cc3c[nH]c4ccccc34)NC(=O)[C@H](C(C)C)NC(=O)[C@H](CC(C)C)NC(=O)[C@H](CCC(=O)O)NC(=O)CNC1=O)C(=O)N[C@@H]([C@@H](C)O)C(=O)N1CCC[C@@H]1C(=O)N1C[C@@H](NC(=O)CCOCCOCCOCCNC(=O)CCCc3cn(C[C@@]45CO[C@@H](O4)[C@H](Nc4nc(Cl)ns4)[C@@H](O)[C@H]5O)nn3)C[C@H]1C(=O)N[C@@H](CC(=O)O)C(=O)N2 [Compound 5] | < 100 | < 100 | – | – | –
O=[N+]([O-])c1ccc(NCCOCCOCCOCCOCCOCCOCCOC[C@@]23CO[C@@H](O2)[C@H](Nc2nc(Cl)ns2)[C@@H](O)[C@H]3O)c([N+](=O)[O-])c1 [Compound 26, (1S,2R,3R,4R,5S)-4-((3-chloro-1,2,4-thiadiazol-5-yl)amino)-1-(22-((2,4-dinitrophenyl)amino)-2,5,8,11,14,17,20-heptaoxadocosyl)-6,8-dioxabicyclo[3.2.1]octane-2,3-diol] | – | – | < 100 | < 100 | –
CC(C)C[C@@H]1NC(=O)[C@H](Cc2c[nH]cn2)NC(=O)[C@H](Cc2c[nH]c3ccccc23)NC(=O)[C@H](C)NC(=O)[C@@H]2CSSC[C@H](NC(=O)[C@H](Cc3c[nH]c4ccccc34)NC(=O)[C@H](C(C)C)NC(=O)[C@H](CC(C)C)NC(=O)[C@H](CCC(=O)O)NC(=O)CNC1=O)C(=O)N[C@@H]([C@@H](C)O)C(=O)N1CCC[C@@H]1C(=O)N1C[C@@H](NC(=O)CNC(COCCC(=O)NCCOCCOCCOCCOC[C@@]34CO[C@@H](O3)[C@H](Nc3cncc(C(F)(F)F)n3)[C@@H](O)[C@H]4O)COCCC(=O)NCCOCCOCCOCCOC[C@@]34CO[C@@H](O3)[C@H](Nc3cncc(C(F)(F)F)n3)[C@@H](O)[C@H]4O)C[C@H]1C(=O)N[C@@H](CC(=O)O)C(=O)N2 [Compound 73] | < 100 | – | – | – | 500 to 1000
CC(C)C[C@@H]1NC(=O)[C@H](Cc2cnc[nH]2)NC(=O)[C@H](Cc2c[nH]c3ccccc23)NC(=O)[C@H](C)NC(=O)[C@@H](NC(=O)[C@@H](N)CC(=O)O)CSSC[C@@H](C(=O)N[C@H](C(N)=O)[C@@H](C)O)NC(=O)[C@H](Cc2c[nH]c3ccccc23)NC(=O)[C@H](C(C)C)NC(=O)[C@H](CC(C)C)NC(=O)[C@H](CCC(=O)NCCOCCOCCOCCOCCNC(=O)CCCc2cn(CCCCCC(=O)NC(COCCC(=O)NCCOCCOCCOCCOC[C@H]3OC[C@H](Nc4nccc(C(F)(F)F)n4)[C@@H](O)[C@H]3O)COCCC(=O)NCCOCCOCCOCCOC[C@H]3OC[C@H](Nc4nccc(C(F)(F)F)n4)[C@@H](O)[C@H]3O)nn2)NC(=O)CNC1=O [Compound 2] | < 100 | 100 to 500 | – | – | –
